Measurements: publication PMC8485799, “Synthesis and Antiprotozoal Profile of 3,4,5‐Trisubstituted Isoxazoles” (ChemistryOpen, 2021)

What was measured:
[1] = tested on: epimastigote forms of Trypanosoma cruzi (Y strain); test: Antiproliferative assay (XTT), epimastigote forms, 96 h; assay type: cell-based; conditions: for IC50: Trypanosoma cruzi, epimastigote form, 96 h, XTT, read-out: T. cruzi IC50; for SIT-F, selectivity index (Fibroblast CC50/T. cruzi IC50): fibroblast vs epimastigote; for SIT-M, selectivity index (Macrophages CC50/T. cruzi IC50): macrophages vs epimastigote
Description: (§1) The antiproliferative activity was determined in promastigote forms of Leishmania amazonensis (WHOM/BR/75/JOSEFA strain) and epimastigote forms of Trypanosoma cruzi (Y strain). The promastigote forms of L. amazonensis were cultured in Warren medium (brain heart infusion, hemin, and folic acid; pH 7.4) supplemented with 10 % fetal bovine serum (FBS) at 25 °C. The epimastigote forms of T.cruzi were cultured in LIT medium (liver infusion tryptose; hemin, and folic acid; pH 7.4) supplemented with 10 % FBS at 28 °C. Cytotoxicity in mammalian cells was determined in fibroblast line (L929) and macrophages (J774 A1). Fibroblasts were cultured in DMEM medium (pH 7.2) supplemented with 10 % FBS at 37 °C in a 5 % CO2 atmosphere. Macrophages were cultured in RPMI‐1640 (pH 7.2) medium supplemented with 10 % FBS at 37 °C in a 5 % CO2 atmosphere.
(§2) Stock solutions of the compounds were prepared in DMSO and then diluted in the respective medium.
(§3) Promastigote forms (1×10^6 parasites.mL^−1) were cultured in 96‐well plates in the presence and absence of different concentrations of compounds diluted in Warren medium supplemented with 10 % FBS and incubated for 72 h. The epimastigote forms (1×10^6 parasites.mL^−1) were cultured in 96‐well plates in the presence and absence of different concentrations of compounds diluted in LIT medium supplemented with 10 % FBS and incubated for 96 h. After treatment, the parasites were incubated with a solution of 2,3‐bis(2‐methoxy‐4‐nitro‐5‐sulfophenyl)‐2H‐tetrazolium‐5‐carboxanilide (XTT; 0.5 mg.mL^−1) and phenazine methanesulfonate activator (PMS; 0.06 mg.mL^−1) in PBS for 4 h. Then, the absorbance was read in a microplate reader (Bio Tek‐Power Wave XS) at 450 nm.[20] The percentage of viable parasites was calculated in relation to the control in order to determine the concentration that inhibits 50 % of the protozoa (IC50). The control groups of each experiment received the same experimental conditions as the treated groups (cell concentration used, temperature, and incubation time).

[2] = Cytotoxicity assay in mammalian cells (MTT), fibroblasts, 72 h; assay type: cell-based; conditions: mouse, L929 fibroblast cells, pH 7.2; 50 % inhibition of fibroblast growth, 72 h, MTT
Description: as §1, §2
(§4) Fibroblast cell (2.5×10^5 cells.mL^−1) suspensions were prepared in DMEM medium supplemented with 10 % FBS and added to 96‐well plates. Then, the plates were incubated at 37 °C in a CO2 atmosphere for 24 h to obtain confluent cell growth. After incubation, cells were treated with different concentrations of compounds diluted in DMEM for 72 h or left untreated. Macrophage (5×10^5 cells.mL^−1) suspensions were prepared in RPMI‐1640 medium supplemented with 10 % FBS and added to 96‐well plates. Then, the plates were incubated at 37 °C in a CO2 atmosphere for 24 h to obtain confluent cell growth. After incubation, cells were treated with different concentrations of compounds diluted in RPMI‐1640 for 48 h or left untreated. After treatment, the medium was removed, and cells were incubated with MTT (2 mg.mL^−1) for 4 h. Then, DMSO was added for solubilization of the formazan and analyzed with a reading microplate reader (BIO‐TEK PowerWave XS spectrophotometer) at […].[20] The percentage of viable cells was calculated in relation to the untreated control group to determine the cytotoxic concentration in 50 % of the cells (CC50). The control groups of each experiment received the same experimental conditions as the treated groups (cell concentration used, temperature, CO2, and incubation time).

[3] = Cytotoxicity assay in mammalian cells (MTT), macrophages, 48 h; assay type: cell-based; conditions: mouse, J774 A1 macrophages, pH 7.2; 50 % inhibition of macrophages growth, 48 h, MTT
Description: as §1, §2, §4

[4] = tested on: promastigote forms of Leishmania amazonensis (WHOM/BR/75/JOSEFA strain); test: Antiproliferative assay (XTT), promastigote forms, 72 h; assay type: cell-based; conditions: for IC50: Leishmania amazonensis, promastigote form, 72 h, XTT, read-out: L. amazonensis IC50; for SIL-F, selectivity index (Fibroblast CC50/L. amazonensis IC50): fibroblast vs promastigote; for SIL-M, selectivity index (Macrophages CC50/L. amazonensis IC50): macrophages vs promastigote
Description: as §1, §2, §3

SMILES	IC50 [1]	SIT-F, selectivity index (Fibroblast CC50/T. cruzi IC50) [1]	SIT-M, selectivity index (Macrophages CC50/T. cruzi IC50) [1]	CC50 at 72 h [2]	CC50 at 48 h [3]	melting point	IC50 [4]	SIL-F, selectivity index (Fibroblast CC50/L. amazonensis IC50) [4]	SIL-M, selectivity index (Macrophages CC50/L. amazonensis IC50) [4]
CCOC(=O)c1noc(-c2ccc(Cl)cc2)c1CNc1ccccc1 [2 da]	32.9 ± 3.7 µM	4.80	4.70	158 ± 7.7 µM	155 ± 3 µM	172.9 to 173.4 °C	29.9 ± 2.1 µM	5.28	5.17
CCOC(=O)c1noc(-c2ccc(Cl)cc2)c1CNc1ccc(Cl)cc1 [2 db]	22.4 ± 2.6 µM	4.44	3.92	99.5 ± 5.7 µM	87.9 ± 4.6 µM	173.3 to 175.4 °C	21.6 ± 2.2 µM	4.61	4.07
COc1ccc(NCc2c(C(=O)N/N=C/c3ccccc3)noc2-c2ccc([N+](=O)[O-])cc2)cc1 [4 ac]	18.7 ± 1.4 µM	12.89	11.19	241 ± 3.8 µM	209 ± 8.5 µM		14.5 ± 2.2 µM	16.63	14.43
O=C(N/N=C/c1ccccn1)c1noc(-c2ccc([N+](=O)[O-])cc2)c1CNc1ccc(Cl)cc1 [5 ab]	24.7 ± 2.9 µM	4.08	3.81	101 ± 4.4 µM	94.2 ± 3.9 µM		26 ± 2.1 µM	3.88	3.55
COc1ccc(NCc2c(C(=O)N/N=C/c3ccccn3)noc2-c2ccc([N+](=O)[O-])cc2)cc1 [5 ac]	> 200 µM			801 ± 10.4 µM	723.6 ± 3 µM		> 200 µM		
COc1ccc(NCc2c(C(=O)N/N=C/c3ccccn3)noc2-c2ccccc2)cc1 [5 bc]	19.4 ± 1.1 µM	9.50	9.11	184 ± 5.1 µM	177 ± 9.8 µM		17.9 ± 3.7 µM	10.3	9.88
COc1ccc(NCc2c(C(=O)N/N=C/c3ccccn3)noc2-c2ccc(F)cc2)cc1 [5 cc]	19.7 ± 0.9 µM	14.76	12.96	291 ± 4.7 µM	255 ± 8.1 µM		18 ± 2.5 µM	16.16	14.18
O=C(N/N=C/c1ccc(-c2cccs2)s1)c1noc(-c2ccc([N+](=O)[O-])cc2)c1CNc1ccc(Cl)cc1 [6 ab]	13.8 ± 1.5 µM	8.39	6.91	116 ± 5.5 µM	95.3 ± 5.3 µM		12.7 ± 1.1 µM	9.12	7.50
COc1ccc(NCc2c(C(=O)N/N=C/c3ccc(-c4cccs4)s3)noc2-c2ccc([N+](=O)[O-])cc2)cc1 [6 ac]	52.5 ± 2.9 µM	4.40	3.50	231 ± 5.9 µM	184 ± 3 µM		48.9 ± 7.1 µM	4.72	3.75
O=C(N/N=C/c1ccc(-c2cccs2)s1)c1noc(-c2ccccc2)c1CNc1ccccc1 [6 ba]	52.4 ± 2.9 µM	3.98	3.75	209 ± 2.9 µM	196 ± 4.4 µM		46.9 ± 3 µM	4.45	4.19
O=C(N/N=C/c1ccc(-c2cccs2)s1)c1noc(-c2ccc(F)cc2)c1CNc1ccccc1 [6 ca]	42.7 ± 5.6 µM	9.07	7.22	388 ± 4.7 µM			34.6 ± 2.4 µM	11.2	8.92
O=C(N/N=C/c1ccc(-c2cccs2)s1)c1noc(-c2ccc(F)cc2)c1CNc1ccc(Cl)cc1 [6 cb]	20.4 ± 3.6 µM	10.5	10.3	215 ± 8.9 µM	210 ± 3.1 µM		19.7 ± 2.6 µM	10.9	10.6
COc1ccc(NCc2c(C(=O)N/N=C/c3ccc(-c4cccs4)s3)noc2-c2ccc(F)cc2)cc1 [6 cc]	22.8 ± 3 µM	13.84	11.71	316 ± 10.8 µM	267 ± 7.9 µM		20.6 ± 1.7 µM	15.32	12.97
O=C(N/N=C/c1ccc(-c2cccs2)s1)c1noc(-c2ccc(Cl)cc2)c1CNc1ccc(Cl)cc1 [6 db]	33.6 ± 4.8 µM	9.21	8.94	310 ± 3.1 µM	300 ± 4.2 µM		38.5 ± 4.6 µM	8.04	7.81
